One assay deals with Prothrombin (Homo sapiens, UniProt P00734). The assay is described as follows: Inhibitory activity against human thrombin (using Chromozym TH as the substrate).
Another assay deals with Trypsin (Homo sapiens, UniProt P07477+P07478+P35030). Put plainly: Inhibitory activity against human trypsin (using Chromozym TH as the substrate). Format: protein assay.

Usually Ki stands for a dissociation constant, usually derived from enzyme kinetics or from competition with a known ligand. A low value points to higher affinity.

Consider `N=C(N)NS(=O)(=O)C(F)(F)C(F)(F)C(F)(F)C(F)(F)F`, for which the Ki at Prothrombin turned out to be 520 nM; at Trypsin, 2100 nM.

With `COC(=N)NS(=O)(=O)c1ccc(I)cc1`, the Ki was determined as 243 nM at Prothrombin and 1415 nM on Trypsin.

As for `Cc1ccc(S(=O)(=O)NC(=O)N2CCC[C@H]2C(=O)NCC(=O)Nc2ccc(S(=O)(=O)NN=C(N)N)cc2)cc1`, the figures for the Ki at Prothrombin and at Trypsin were 15 nM and 1560 nM, respectively.

Turning to `Cc1cc(C)c(S(=O)(=O)N=C(N)N)c(C)c1`, the Ki on Prothrombin came to 255 nM; on Trypsin, 1450 nM.

In the case of `N=C(N)NNS(=O)(=O)c1ccccc1C(=O)O`, the Ki on Prothrombin stood at 205 nM; on Trypsin it was 1400 nM.

In the case of `Cc1ccc(S(=O)(=O)NC(=O)N2CCCC2C(=O)Nc2ccc(S(=O)(=O)N=C(N)N)cc2)cc1` (stereo not drawn), the Ki at Prothrombin was 48 nM; on Trypsin, 1445 nM.

With `CN(C)c1cccc2c(S(=O)(=O)N=C(N)N)cccc12`, the Ki worked out at 120 nM on Prothrombin and 1150 nM at Trypsin.

On to `COC(=N)NS(=O)(=O)c1ccc(NC(=O)C2CCCN2C(=O)[C@H](Cc2ccccc2)NC(=O)OCc2ccccc2)cc1` (stereo partly drawn), for which the Ki at Prothrombin amounted to 16 nM; at Trypsin, 1435 nM.

With `N=C(N)NNS(=O)(=O)c1cc(Cl)cc(Cl)c1O`, the Ki on Prothrombin was 98 nM; at Trypsin, 1100 nM.

For the compound `N=C(N)NNS(=O)(=O)c1ccc(Br)cc1`, the Ki amounted to 203 nM at Prothrombin and 1215 nM at Trypsin.

As to `Cc1ccc(S(=O)(=O)NC(=O)NCCC(=O)N[C@@H](Cc2c[nH]cn2)C(=O)Nc2ccc(S(=O)(=O)NN=C(N)N)cc2)cc1`, the Ki on Prothrombin was determined as 10 nM; at Trypsin it was 1390 nM.

Take `COC(=N)NS(=O)(=O)c1ccc(C)cc1`: the Ki was found to be 328 nM on Prothrombin and 2150 nM on Trypsin.

In the case of `N=C(N)NNS(=O)(=O)c1cccc(N)c1`, the Ki was found to be 88 nM at Prothrombin and 1400 nM at Trypsin.

Regarding `Cc1ccc(S(=O)(=O)N=C(N)N)cc1`, the figures for the Ki on Prothrombin and at Trypsin were 290 nM and 1810 nM, respectively.

For the compound `COC(=N)NS(=O)(=O)c1ccc(NC(=O)[C@H](Cc2c[nH]cn2)NC(=O)CNC(=O)NS(=O)(=O)c2ccc(C)cc2)cc1`, the Ki on Prothrombin amounted to 21 nM; at Trypsin, 1550 nM.

Consider `N=C(N)NS(=O)(=O)c1ccc(Cl)cc1`, for which the Ki at Prothrombin turned out to be 225 nM; on Trypsin, 1170 nM.

On to `COC(=N)NS(=O)(=O)c1ccc(NC(=O)[C@H](Cc2c[nH]cn2)NC(=O)CCNC(=O)NS(=O)(=O)c2ccc(C)cc2)cc1`, for which the figures for the Ki at Prothrombin and at Trypsin were 19 nM and 1420 nM, respectively.

On to `COc1ccc(S(=O)(=O)NN=C(N)N)cc1`, for which the Ki on Prothrombin came to 227 nM; on Trypsin it was 1275 nM.

In the case of `COc1ccc(S(=O)(=O)N=C(N)N)cc1N`, the Ki was found to be 103 nM on Prothrombin and 1080 nM on Trypsin.

With `COc1ccc(S(=O)(=O)N=C(N)N)cc1`, the Ki at Prothrombin worked out at 240 nM; at Trypsin it was 1320 nM.

In the case of `COC(=N)NS(=O)(=O)C(F)(F)C(F)(F)C(F)(F)C(F)(F)C(F)(F)C(F)(F)C(F)(F)C(F)(F)F`, the Ki at Prothrombin amounted to 403 nM; on Trypsin, 2135 nM.

`N=C(N)NS(=O)(=O)c1cccc(C(=O)O)c1`: the Ki at Prothrombin amounted to 121 nM; at Trypsin it was 1500 nM.

As for `COC(=N)NS(=O)(=O)c1ccc(N)cc1`, the values for the Ki on Prothrombin and on Trypsin were 106 nM and 1580 nM, respectively.

In the case of `Cc1ccc(S(=O)(=O)NC(=O)N[C@H](Cc2ccccc2)C(=O)Nc2ccc(S(=O)(=O)N=C(N)N)cc2)cc1`, the Ki at Prothrombin turned out to be 43 nM; at Trypsin it was 1250 nM.

On to `N=C(N)NNS(=O)(=O)c1cccc(C(=O)O)c1`, for which the Ki is 112 nM at Prothrombin and 1520 nM on Trypsin.

In the case of `N=C(N)NS(=O)(=O)c1ccc(C(=N)N)cc1`, the Ki at Prothrombin worked out at 300 nM; on Trypsin, 450 nM.

As to `COC(=N)NS(=O)(=O)c1ccc(Cl)cc1`, the Ki at Prothrombin came out at 266 nM; on Trypsin it was 1325 nM.

In the case of `COC(=N)NS(=O)(=O)C(F)(F)F`, the values for the Ki at Prothrombin and on Trypsin were 895 nM and 1450 nM, respectively.

On to `N=C(N)NS(=O)(=O)C(F)(F)C(F)(F)C(F)(F)C(F)(F)C(F)(F)C(F)(F)C(F)(F)C(F)(F)F`, for which the Ki on Prothrombin worked out at 360 nM; at Trypsin, 1950 nM.

Consider `N=C(N)NS(=O)(=O)c1cc(Cl)cc(Cl)c1O`, for which the inhibition constant (Ki) was 152 nM at Prothrombin and 1420 nM on Trypsin.

As for `COC(=N)NS(=O)(=O)CC12CCC(CC1=O)C2(C)C` (stereo not drawn), the inhibitory constant (Ki) was found to be 336 nM at Prothrombin and 1075 nM at Trypsin.

As to `COC(=N)NS(=O)(=O)c1cccs1`, the Ki at Prothrombin came out at 213 nM; on Trypsin it was 1350 nM.

On to `COC(=N)NS(=O)(=O)c1ccccc1C(=O)O`, for which the values for the Ki on Prothrombin and on Trypsin were 325 nM and 1550 nM, respectively.

For the compound `COC(=N)NS(=O)(=O)c1c(F)c(F)c(F)c(F)c1F`, the Ki on Prothrombin is 153 nM; at Trypsin it was 1425 nM.

Turning to `COC(=N)NS(=O)(=O)c1ccc(NC(=O)[C@@H](Cc2ccccc2)NC(=O)NS(=O)(=O)c2ccc(C)cc2)cc1`, the results for the Ki at Prothrombin and at Trypsin were 60 nM and 1320 nM, respectively.

For `COC(=N)NS(=O)(=O)c1ccc(Br)cc1`, the Ki is 265 nM at Prothrombin and 1370 nM at Trypsin.

Regarding `N=C(N)NS(=O)(=O)c1ccc(NC(=O)C2CCCN2C(=O)[C@H](Cc2ccccc2)NC(=O)OCc2ccccc2)cc1` (stereo partly drawn), the results for the Ki on Prothrombin and at Trypsin were 13 nM and 1360 nM, respectively.

With `N=C(N)NS(=O)(=O)c1ccc([N+](=O)[O-])cc1`, the values for the Ki at Prothrombin and on Trypsin were 180 nM and 975 nM, respectively.

For the compound `CC(=O)Nc1ccc(S(=O)(=O)N=C(N)N)cc1`, the Ki on Prothrombin was found to be 195 nM; on Trypsin, 1070 nM.

For `N=C(N)NS(=O)(=O)c1ccc(I)cc1`, the Ki worked out at 210 nM at Prothrombin and 1350 nM at Trypsin.

On to `COC(=N)NS(=O)(=O)c1cccc(C(=O)O)c1`, for which the Ki at Prothrombin is 197 nM; on Trypsin it was 1595 nM.

As for `N=C(N)NNS(=O)(=O)c1c(F)c(F)c(F)c(F)c1F`, the Ki turned out to be 123 nM on Prothrombin and 1350 nM on Trypsin.

`N=C(N)NNS(=O)(=O)c1ccc(F)cc1`: the Ki was 225 nM at Prothrombin and 1025 nM on Trypsin.

As for `N=C(N)NS(=O)(=O)c1ccc(N)cc1` [SULFAGUANIDINE], the Ki on Prothrombin was determined as 95 nM; on Trypsin it was 1350 nM.

The values above are taken from ChEMBL document CHEMBL1132933, “Protease inhibitors: synthesis and QSAR study of novel classes of nonbasic thrombin inhibitors incorporating sulfonylguanidine and O-methylsulfonylisourea moieties at P1” (J Med Chem, 2000).
